Patent publication US7696148B1, “Administration of products of the 5-lipoxygenase metabolic pathway to enhance antimicrobial defense” (Board of Trustees of Michigan State University, priority 1996, dated 2010)
Where two headings read alike, the source gives them in different places.

Key:
[1] = test system: normal rat alveolar macrophages; experiment: Phagocytosis of K. pneumoniae by normal rat alveolar macrophages (phagocytic index); assay type: cell-based, Wistar rats
Protocol: (§1) For assays of bacterial phagocytosis and killing, alveolar macrophages were purified from bronchoalveolar lavage cells by adherence for 1 hour in HBSS and studied in monolayer culture. Adherent cells were preincubated with 5% K. pneumoniae-specific immune serum (as a source of both complement and specific opsonizing antibody) for 5 minutes at 37° C. prior to assays. Phagocytosis was studied by incubating 10^5 alveolar macrophages with 10^6 K. pneumoniae in each well of an 8-well Labtek® plate (Nunc) for 1 hour at 37° C.; in some experiments, exogenous LTB4 (Cayman) was added concomitantly with bacteria. The supernatants were aspirated and the cells were washed 3 times with HBSS. The slides were then allowed to air dry, Diff-Quik® (Difco) staining was performed, and 200 cells per well were counted to determine number of intracellular K. pneumoniae and percent of alveolar macrophages containing bacteria. Phagocytic index was calculated as the mean percentage of alveolar macrophages containing bacteria multiplied by the mean number of bacteria per alveolar macrophage.
Alveolar macrophages from Wistar rats were adhered and then incubated for 1 hour with K. pneumoniae alone or in the presence of 1 nM of several 5-LO metabolites (LTB4, LTC4, and 5-HETE). Phagocytic index was subsequently determined as described above in the General Methods.
A related experiment was also performed to determine if the ability of exogenous LTB4 to enhance bacterial phagocytosis is mediated by its interaction with LTB4 receptors. This experiment was based on the fact that pretreatment with LTB4 desensitizes cells to subsequent LTB4 responsiveness; though an understanding of the mechanism of this effect is not required to practice the present invention, the desensitization is believed to occur by down-regulating receptor expression or coupling. For this experiment, cells were pretreated with LTB4 (1 nM) for 1 hour, washed, and incubated with bacteria plus LTB4.

5-LO = molecular target: T1, 5-LO (Mus musculus, UniProt P48999); settings: once-daily oral agent; cited from earlier work
T1 construct: from tissue; host or cells: whole animal: wild type mice (129/SvEv, The Jackson Laboratory)
T1 sequence (P48999 1-674): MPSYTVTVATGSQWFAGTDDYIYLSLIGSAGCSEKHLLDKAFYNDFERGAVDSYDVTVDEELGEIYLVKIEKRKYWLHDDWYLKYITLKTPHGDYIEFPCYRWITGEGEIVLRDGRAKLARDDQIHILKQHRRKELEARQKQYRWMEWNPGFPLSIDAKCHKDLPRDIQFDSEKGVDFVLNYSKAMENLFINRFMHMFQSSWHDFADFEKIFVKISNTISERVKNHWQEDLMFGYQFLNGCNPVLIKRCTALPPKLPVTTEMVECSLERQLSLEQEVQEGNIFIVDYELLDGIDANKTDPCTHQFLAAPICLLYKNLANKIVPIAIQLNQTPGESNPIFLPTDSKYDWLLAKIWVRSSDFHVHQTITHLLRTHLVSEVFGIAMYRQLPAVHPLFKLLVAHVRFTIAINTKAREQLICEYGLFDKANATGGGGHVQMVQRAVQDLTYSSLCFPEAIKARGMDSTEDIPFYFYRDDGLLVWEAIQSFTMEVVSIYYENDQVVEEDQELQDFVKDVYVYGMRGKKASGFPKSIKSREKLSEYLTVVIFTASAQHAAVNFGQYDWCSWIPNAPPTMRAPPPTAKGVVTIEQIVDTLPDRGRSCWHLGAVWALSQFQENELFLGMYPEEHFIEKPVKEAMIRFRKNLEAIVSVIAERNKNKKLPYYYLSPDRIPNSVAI

[2] = mice, once-daily oral dose; cited from earlier work
peritoneal macrophages = settings: cited from earlier work
[3] = test system: neutrophils from 5-LO knockout mice; experiment: Phagocytosis of K. pneumoniae by glycogen-elicited peritoneal neutrophils from 5-LO knockout mice; assay type: cell-based, mouse; settings: 1 nM LTB4, one hour
Protocol: as §1
To obtain peritoneal elicited neutrophils, mice are injected intraperitoneally with 5% glycogen in PBS and peritoneal lavage is performed 5 hours later. Approximately 3×10^6 cells are obtained from each animal, approximately 85-90% of which are neutrophils. These cells are likewise placed into culture for functional studies. […]

[4] = test system: alveolar macrophages from 5-LO knockout mice; experiment: Phagocytosis of K. pneumoniae by alveolar macrophages from 5-LO knockout mice (phagocytic index); assay type: cell-based, mouse; settings: 5-LO knockout alveolar macrophages
Protocol: as §1
Cultured alveolar macrophages from knockout mice were incubated in the presence of specific serum for 1 hour with K. pneumoniae alone or in the presence of varying doses of LTB4. Phagocytic index was calculated as described in the General Methods. FIG. 6 graphically depicts the effect of exogenous LTB4 (none, 0.1 nM, and 5 nM LTB4 added) on bacterial phagocytic activity in alveolar macrophages from 5-LO KO mice; each value represents the mean from triplicate cultures. […] Though not required in order to practice the present invention, it is believed that neutrophils manifest similar functional defects in phagocytosis and killing which could contribute to the sensitivity to bacterial pneumonia seen in knockout mice in vivo.

S. typhimurium = settings: intraperitoneal injection; cited from earlier work
Schistosoma mansoni = settings: neutrophils; cited from earlier work
[5] = 6 ng intratracheally per animal, 6 hours after administration, mice; cited from earlier work
K. pneumoniae = experiment: Pulmonary bacterial clearance (lung homogenate CFU) after intratracheal K. pneumoniae challenge in 5-LO knockout mice; assay type: in vivo, mouse
Protocol: K. pneumoniae strain 43816, serotype 2 obtained from the ATCC (Assession No. 29939) was grown in tryptic soy broth (Difco) for 18 hours at 37° C. The preparation and intratracheal administration of K. pneumoniae were carried out as described by M. Schneemann et al. [J. Infect. Dis. 167:1358-1363 (1993)]. Bacterial concentration was determined by measuring absorbance at 600 nm and referencing to a standard curve of absorbances vs. known standard CFUs. Bacteria were then pelleted by centrifugation for 30 min at 10,000 rpm, washed ×2 in saline, and resuspended at the desired concentration in saline.
After appropriate dilution of bacteria in endotoxin-free saline, animals were anesthetized with sodium pentobarbital (approximately 0.2 mL diluted 1:7 in saline intraperitoneally) and the trachea was exposed via a small midline incision. […]
Plasma and lung CFU were determined as described by M. Schneemann et al. [J. Infect. […]
LTB4 was administered together with the intratracheal inoculum of K. pneumoniae (50 CFU). […] Second, the present inventors previously found (see FIG. 5) that approximately 7 ng of total LTB4 could be measured in the homogenate of a pair of lungs from Klebsiella-challenged wild type mice. […] Following 24 hours of bacterial inoculation, lungs were harvested and lung homogenate CFUs were determined.

[6] = in vivo bronchoscopic instillation into the human lung; cited from earlier work
[7] = administered orally to rats; cited from earlier work
[8] = normal rat alveolar macrophages, 1 nM, 1 hour with K. pneumoniae

CCCCC/C=C\C/C=C\C/C=C\C=C\[C@@H](O)CCCC(=O)O [5-HETE]
effect on phagocytic index [1, 8]: similar, though less pronounced, effect

C[C@H](C#Cc1ccc(Oc2ccc(F)cc2)o1)N(O)C(N)=O [A-79175]
efficacy in mice (5-LO): demonstrated efficacy in mice

O=C(O)C1(c2ccc3c(c2)OC[C@H](Cc2ccc(-c4ccccc4)cc2)[C@H]3O)CCCC1 [CP-105,696]
collagen-induced arthritis [2]: inhibited collagen-induced arthritis

CCCCC/C=C\C[C@@H](O)/C=C/C=C/C=C\[C@@H](O)CCCC(=O)O [LTB4, leukotriene B4]
in vitro phagocytosis and killing of P. aeruginosa and Salmonella typhimurium (peritoneal macrophages): enhanced the in vitro phagocytosis and killing
effect of LTB4 pretreatment on LTB4-augmented phagocytosis ([1]; cells pretreated with LTB4 1 nM for 1 hour, washed, then bacteria plus LTB4 1 nM): almost completely abrogated
increase in phagocytic index [1, 8]: approximately 6 fold
phagocytic index [3]: 27±8
phagocytic index relative to baseline level ([4]; 5 nM LTB4, 1 hour with K. pneumoniae, specific serum): approximately three
increase of phagocytic index ([4]; exogenous LTB4): approximately 300%
effect on phagocytic index ([4]; none, 0.1 nM and 5 nM LTB4): dose-dependently enhanced the phagocytic index
in vivo clearance of S. typhimurium (S. typhimurium): enhanced the in vivo clearance
in vitro killing of Schistosoma mansoni (Schistosoma mansoni): enhanced
neutrophil influx [5]: brisk neutrophil influx
effect on in vivo bacterial clearance (K. pneumoniae; intrapulmonary administration): partially overcame the in vivo impairment in bacterial clearance
reduction of lung CFU (K. pneumoniae; single 6 ng intratracheal dose with 50 CFU inoculum, 24 hours): approximately 10 fold
neutrophil influx [6]: resulted in neutrophil influx

CCCCC/C=C\C\C=C/C=C/C=C/[C@@H](SC[C@H](NC(=O)CC[C@H](N)C(=O)O)C(=O)NCC(=O)O)[C@@H](O)CCCC(=O)O [LTC4, leukotriene C4]
effect on phagocytic index [1, 8]: augmented phagocytosis to a degree similar to LTB4

CN(C)C(=O)CCSC(SCCC(=O)O)c1cccc(/C=C/c2ccc3ccc(Cl)cc3n2)c1 (stereo not drawn) [MK-571]
antigen-induced bronchoconstriction [7]: effectively inhibited antigen-induced bronchoconstriction
